Each block holds one compound with its values, some of them ahead of it.
Columns and labels:
[1] = Antiproliferative activity against human U87 cells after 48 hrs by MTT assay; assay type: functional, cell-based, U-87MG ATCC; conditions: U-87 MG
A549 [2] = test: Antiproliferative activity against human A549 cells after 48 hrs by MTT assay; assay type: functional, cell-based; conditions: A549, 48 h
HepG2 = test: Antiproliferative activity against human HepG2 cells after 48 hrs by MTT assay; assay type: functional, cell-based; conditions: HepG2, 48 h
HeLa = test: Antiproliferative activity against human HeLa cells after 48 hrs by MTT assay; assay type: functional, cell-based
A549 [3] = test: Potency index, ratio of gefitinib IC50 to compound IC50 against human A549 cells; assay type: functional
A549 [4] = test: Antimigratory activity against human A549 cells assessed as reduction in cell migration towards wound area after 48 hrs by phase contrast microscopic method; assay type: functional, cell-based
A549 [5] = test: Induction of apoptosis in human A549 cells assessed as live cells at 8 uM after 48 hrs by annexin V-FITC/propidium iodide staining-based flow cytometric method (reference value: 93.6%); assay type: functional
A549 [6] = test: Induction of apoptosis in human A549 cells assessed as early apoptotic cells at 8 uM after 48 hrs by annexin V-FITC/propidium iodide staining-based flow cytometric method (reference value: 3.87%); assay type: functional
A549 [7] = test: Induction of apoptosis in human A549 cells assessed as late apoptotic cells at 8 uM after 48 hrs by annexin V-FITC/propidium iodide staining-based flow cytometric method (reference value: 2.39%); assay type: functional
A549 [8] = test: Induction of apoptosis in human A549 cells assessed as necrotic cells at 8 uM after 48 hrs by annexin V-FITC/propidium iodide staining-based flow cytometric method (reference value: 0.13%); assay type: functional
A549 [9] = test: Induction of apoptosis in human A549 cells assessed as live cells at 16 uM after 48 hrs by annexin V-FITC/propidium iodide staining-based flow cytometric method (reference value: 93.6%); assay type: functional
A549 [10] = test: Induction of apoptosis in human A549 cells assessed as early apoptotic cells at 16 uM after 48 hrs by annexin V-FITC/propidium iodide staining-based flow cytometric method (reference value: 3.87%); assay type: functional
A549 [11] = test: Induction of apoptosis in human A549 cells assessed as late apoptotic cells at 16 uM after 48 hrs by annexin V-FITC/propidium iodide staining-based flow cytometric method (reference value: 2.39%); assay type: functional
A549 [12] = test: Induction of apoptosis in human A549 cells assessed as necrotic cells at 16 uM after 48 hrs by annexin V-FITC/propidium iodide staining-based flow cytometric method (reference value: 0.13%); assay type: functional
A549 [13] = test: Induction of apoptosis in human A549 cells assessed as live cells at 24 uM after 48 hrs by annexin V-FITC/propidium iodide staining-based flow cytometric method (reference value: 93.6%); assay type: functional
A549 [14] = test: Induction of apoptosis in human A549 cells assessed as early apoptotic cells at 24 uM after 48 hrs by annexin V-FITC/propidium iodide staining-based flow cytometric method (reference value: 3.87%); assay type: functional
A549 [15] = test: Induction of apoptosis in human A549 cells assessed as late apoptotic cells at 24 uM after 48 hrs by annexin V-FITC/propidium iodide staining-based flow cytometric method (reference value: 2.39%); assay type: functional
A549 [16] = test: Induction of apoptosis in human A549 cells assessed as necrotic cells at 24 uM after 48 hrs by annexin V-FITC/propidium iodide staining-based flow cytometric method (reference value: 0.13%); assay type: functional
A549 [17] = test: Cell cycle arrest in human A549 cells assessed as accumulation at G0/G1 phase at 8 uM after 48 hrs by propidium iodide staining based flow cytometric analysis (reference value: 42.86%); assay type: functional
A549 [18] = test: Cell cycle arrest in human A549 cells assessed as accumulation at S phase at 8 uM after 48 hrs by propidium iodide staining based flow cytometric analysis (reference value: 54.85%); assay type: functional
A549 [19] = test: Cell cycle arrest in human A549 cells assessed as accumulation at G2/M phase at 8 uM after 48 hrs by propidium iodide staining based flow cytometric analysis (reference value: 2.29%); assay type: functional
A549 [20] = test: Cell cycle arrest in human A549 cells assessed as accumulation at G0/G1 phase at 16 uM after 48 hrs by propidium iodide staining based flow cytometric analysis (reference value: 42.86%); assay type: functional
A549 [21] = test: Cell cycle arrest in human A549 cells assessed as accumulation at S phase at 16 uM after 48 hrs by propidium iodide staining based flow cytometric analysis (reference value: 54.85%); assay type: functional
A549 [22] = test: Cell cycle arrest in human A549 cells assessed as accumulation at G2/M phase at 16 uM after 48 hrs by propidium iodide staining based flow cytometric analysis (reference value: 2.29%); assay type: functional
A549 [23] = test: Cell cycle arrest in human A549 cells assessed as accumulation at G0/G1 phase at 24 uM after 48 hrs by propidium iodide staining based flow cytometric analysis (reference value: 42.86%); assay type: functional
A549 [24] = test: Cell cycle arrest in human A549 cells assessed as accumulation at S phase at 24 uM after 48 hrs by propidium iodide staining based flow cytometric analysis (reference value: 54.85%); assay type: functional
A549 [25] = test: Cell cycle arrest in human A549 cells assessed as accumulation at G2/M phase at 24 uM after 48 hrs by propidium iodide staining based flow cytometric analysis (reference value: 2.29%); assay type: functional
A549 [26] = test: Cell cycle arrest in human A549 cells assessed as accumulation at G0/G1 phase after 48 hrs by propidium iodide staining based flow cytometric analysis; assay type: functional
[27] = target: T1, Solute carrier family 2, facilitated glucose transporter member 1 (Homo sapiens, UniProt P11166); test: Substrate activity at GLUT1 in human A549 cells assessed cellular uptake at 20 uM after 8 hrs by HPLC analysis relative to control; assay type: ADME, cell-based; conditions: a549, 8 h
T1 sequence (P11166 whole entry): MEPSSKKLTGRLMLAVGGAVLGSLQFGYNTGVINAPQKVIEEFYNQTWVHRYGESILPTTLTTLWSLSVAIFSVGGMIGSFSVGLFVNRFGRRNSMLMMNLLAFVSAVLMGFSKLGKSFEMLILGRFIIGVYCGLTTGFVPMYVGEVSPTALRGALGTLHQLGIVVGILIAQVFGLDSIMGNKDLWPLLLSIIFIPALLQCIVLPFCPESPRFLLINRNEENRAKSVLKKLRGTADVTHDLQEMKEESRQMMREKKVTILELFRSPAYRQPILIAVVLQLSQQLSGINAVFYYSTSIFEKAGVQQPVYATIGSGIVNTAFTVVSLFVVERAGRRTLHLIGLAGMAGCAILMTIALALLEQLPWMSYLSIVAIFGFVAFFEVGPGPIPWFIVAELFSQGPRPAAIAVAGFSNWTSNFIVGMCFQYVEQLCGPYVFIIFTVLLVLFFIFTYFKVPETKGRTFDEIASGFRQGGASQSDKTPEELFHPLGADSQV

A549 [28] = test: Induction of apoptosis in human A549 cells after 48 hrs by annexin V-FITC/propidium iodide staining-based flow cytometric method; assay type: functional, cell-based
[29] = target: T1, Solute carrier family 2, facilitated glucose transporter member 1; test: Substrate activity at GLUT1 in human A549 cells assessed cellular uptake at 20 uM after 8 hrs in presence of 50 mM D-glucose by HPLC analysis relative to control; assay type: ADME, cell-based; conditions: a549, 8 h
[30] = target: T1, Solute carrier family 2, facilitated glucose transporter member 1; test: Substrate activity at GLUT1 in human A549 cells assessed cellular uptake at 20 uM after 8 hrs in presence of 100 mM D-glucose by HPLC analysis relative to control; assay type: ADME, cell-based; conditions: a549, 8 h
[31] = target: T1, Solute carrier family 2, facilitated glucose transporter member 1; test: Substrate activity at GLUT1 in human A549 cells assessed cellular uptake at 20 uM after 8 hrs in presence of 50 mM GLUT1 inhibitor EDG by HPLC analysis relative to control; assay type: ADME, cell-based; conditions: a549, 8 h
[32] = target: T1, Solute carrier family 2, facilitated glucose transporter member 1; test: Substrate activity at GLUT1 in human A549 cells assessed cellular uptake at 20 uM after 8 hrs in presence of 100 mM GLUT1 inhibitor EDG by HPLC analysis relative to control; assay type: ADME, cell-based; conditions: a549, 8 h

IC50 (A549 [2]): 11.4 µM
IC50 (HepG2): 14.7 µM
IC50 (HeLa): 19.3 µM
Drug uptake [27]: 60.3%
Drug uptake [29]: 51.6%
Drug uptake [30]: 49.1%
Drug uptake [31]: 42.1%
Drug uptake [32]: 34.6%
Structure (SMILES): COc1cc(COC(C)C)c(Br)c(Br)c1OCCCO[C@@H]1O[C@H](CO)[C@@H](O)[C@H]1O
IC50 [1]: 11.3 µM
Ratio IC50 (A549 [3]): 2
Activity (A549 [4]): Dose-dependent effect
Activity (A549 [5]): 91.8%
Activity (A549 [6]): 4.18%
Activity (A549 [7]): 3.75%
Activity (A549 [8]): 0.24%
Activity (A549 [9]): 88.1%
Activity (A549 [10]): 7.66%
Activity (A549 [11]): 3.91%
Activity (A549 [12]): 0.32%
Activity (A549 [13]): 81.8%
Activity (A549 [14]): 13.7%
Activity (A549 [15]): 4.35%
Activity (A549 [16]): 0.15%
Activity (A549 [17]): 59.17%
Activity (A549 [18]): 40.83%
Activity (A549 [19]): 0%
Activity (A549 [20]): 76.56%
Activity (A549 [21]): 23.44%
Activity (A549 [22]): 0%
Activity (A549 [23]): 89.56%
Activity (A549 [24]): 10.25%
Activity (A549 [25]): 0.19%
Activity (A549 [26]): Dose-dependent effect
Activity (A549 [28]): Dose-dependent effect

IC50 (A549 [2]): 23.6 µM
IC50 (HepG2): 18.8 µM
IC50 (HeLa): 20.4 µM
Structure (SMILES): COc1cc(CO)c(Br)c(Br)c1OCCCO[C@@H]1O[C@H](CO)[C@@H](O)[C@H]1O
IC50 [1]: 11.2 µM

Drug uptake [27]: Not Active
Structure (SMILES): COc1cc(COC(C)C)c(Br)c(Br)c1O
